This note sets out measurements from publication PMC7714403 (JCI Insight, 2020).

The structures appear in SMILES notation.

In data set [1] the target is T1, ALK (Homo sapiens, UniProt Q9UM73).
T1 construct: purchased Eurofins DiscoverX
The experiment in a line: KdELECT binding assay.

Data set [2] has as its system HS5 human MSCs. The experiment in a line: MTT viability assay of stromal cells. The format is cell-based. The procedure: Cell viability of primary samples
HS5-GFP human bone marrow stromal cells were plated and cultured for 72 hours to near confluence.
MOLM13 cells were then seeded onto HS5-GFP cells to establish a co-culture. Twenty-four hours later, cells were treated with increasing concentrations of drug for an additional 72 hours. MOLM13 and HS5-GFP cells were then separated and MTT assay s were performed for cell viability assessment of each cell population.
For murine or human primary AML cells, 100,000 cells/well were plated in a 96-well plate and treated with increasing concentrations of drug. Cell viability, via trypan blue, was measured every 24 hours. If the viability fell below 50% or at 72 hours of treatment, whichever came earlier, cell viability of each plate was measured via CellTiter-Glo. Primary human AML cells were obtained from the OSUCCC Leukemia Tissue Bank Shared […]
For primary human fibroblasts, cells were plated at 10,000 cells/well in a 96-well plate and cultured for 24 hours. After 24 hours, cells were treated with drug for 72 hours. A MTT assay was performed to assess cell […]
Primary AML samples were analyzed by targeted gene sequencing of 80 genes, as previously described (1). Samples were pooled and analyzed on a MiSeq system using the Illuminia MiSeq Reagent Kit v3. Ill umina Isis Banded Smith Waterman aligner and hg19 genome were used to align the sequences. […]
A general note: Tetrazolium dyes change colour on reduction, which living cells bring about.

The target of data set [3] is AGK (Homo sapiens, UniProt Q53H12). Kind of data set: KiNativ, OCI cells live cell. The format is cell-based. As to conditions: 2 h, labeling site ATP, peptide […].
For data set [4], the target named is CK2a1 (Homo sapiens, UniProt P68400). The experiment in a line: KiNativ, OCI cells live cell. The format is cell-based. The following applies: 2 h, labeling site Protein Kinase Domain, peptide […].
The target of data set [5] is DGKA (Homo sapiens, UniProt P23743). Kind of data set: KiNativ, OCI cells live cell. As to conditions: 2 h, labeling site ATP, peptide […]. The format is cell-based.
For data set [6], the system named is FYN, SRC, YES. Kind of data set: KiNativ, OCI cells live cell. The class given is cell-based, human. As to conditions: labeling site Activation Loop, peptide QGAKFPIKWTAPEAALYGR
The target of data set [7] is T2, LATS1 (Homo sapiens, UniProt O95835).
T2 sequence (O95835 1-1130): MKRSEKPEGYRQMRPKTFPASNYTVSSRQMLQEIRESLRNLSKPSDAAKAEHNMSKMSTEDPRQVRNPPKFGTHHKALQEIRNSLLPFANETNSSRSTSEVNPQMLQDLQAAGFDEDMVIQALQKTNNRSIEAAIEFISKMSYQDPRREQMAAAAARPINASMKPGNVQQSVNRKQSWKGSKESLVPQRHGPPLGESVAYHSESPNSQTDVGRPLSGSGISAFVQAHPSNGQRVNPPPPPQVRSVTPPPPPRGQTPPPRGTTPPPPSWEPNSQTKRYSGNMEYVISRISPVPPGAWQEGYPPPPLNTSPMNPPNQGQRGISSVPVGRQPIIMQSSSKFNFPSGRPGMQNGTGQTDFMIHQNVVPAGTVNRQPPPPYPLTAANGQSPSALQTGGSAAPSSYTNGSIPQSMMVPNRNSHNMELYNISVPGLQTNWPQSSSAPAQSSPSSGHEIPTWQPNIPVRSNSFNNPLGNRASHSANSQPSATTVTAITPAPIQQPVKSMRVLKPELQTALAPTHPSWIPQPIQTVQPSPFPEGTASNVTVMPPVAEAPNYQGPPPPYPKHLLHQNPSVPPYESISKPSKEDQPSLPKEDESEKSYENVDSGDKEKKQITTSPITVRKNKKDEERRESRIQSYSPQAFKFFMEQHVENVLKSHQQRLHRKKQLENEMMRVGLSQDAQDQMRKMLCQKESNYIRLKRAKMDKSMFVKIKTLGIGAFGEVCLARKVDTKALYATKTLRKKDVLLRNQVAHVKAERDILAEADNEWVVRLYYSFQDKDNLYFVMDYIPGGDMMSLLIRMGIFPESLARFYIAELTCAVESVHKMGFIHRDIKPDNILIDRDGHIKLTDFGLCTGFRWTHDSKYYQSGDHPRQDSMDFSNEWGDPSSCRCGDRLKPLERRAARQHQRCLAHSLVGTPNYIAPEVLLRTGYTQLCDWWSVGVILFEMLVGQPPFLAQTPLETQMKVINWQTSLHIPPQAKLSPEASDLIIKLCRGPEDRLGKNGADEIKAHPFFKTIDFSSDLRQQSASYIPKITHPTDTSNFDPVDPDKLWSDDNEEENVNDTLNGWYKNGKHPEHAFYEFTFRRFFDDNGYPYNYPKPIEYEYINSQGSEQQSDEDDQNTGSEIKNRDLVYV
Kind of data set: KiNativ, OCI cells live cell. The class given is cell-based. As to conditions: 2 h.

In data set [8] the target is LOK (Homo sapiens, UniProt O94804). The experiment in a line: KiNativ, OCI cells live cell. As to conditions: labeling site Lys2, peptide DLKAGNVLMTLEGDIR
The class given is cell-based.

The target of data set [9] is MAP3K5 (Homo sapiens, UniProt Q99683). The experiment in a line: KiNativ, OCI cells live cell. The format is cell-based. The following applies: 2 h, labeling site Lys2, peptide […].
The target in data set [10] is MELK (Homo sapiens, UniProt Q14680). Kind of data set: KiNativ, OCI cells live cell. The format is cell-based. As to conditions: 2 h, labeling site Lys2, peptide […].
Data set [11] concerns the target NDR1 (Homo sapiens, UniProt Q15208). The experiment in a line: KiNativ, OCI cells live cell. The format is cell-based. As to conditions: 2 h.
Data set [12] concerns the target ULK3 (Homo sapiens, UniProt Q6PHR2). Kind of data set: KiNativ, OCI cells live cell. As to conditions: labeling site Lys1, peptide EVVAIKCVAK
The class given is cell-based.

Data set [13] concerns Wnk1, Wnk2. The experiment in a line: KiNativ, OCI cells live cell. The format is cell-based, human. The following applies: labeling site ATP Loop, peptide GSFKTVYK
The target of data set [14] is BTK (Homo sapiens, UniProt Q06187). Kind of data set: KdELECT binding assay. Also on record: purchased Eurofins DiscoverX.
Sequence of BTK (Q06187 whole entry): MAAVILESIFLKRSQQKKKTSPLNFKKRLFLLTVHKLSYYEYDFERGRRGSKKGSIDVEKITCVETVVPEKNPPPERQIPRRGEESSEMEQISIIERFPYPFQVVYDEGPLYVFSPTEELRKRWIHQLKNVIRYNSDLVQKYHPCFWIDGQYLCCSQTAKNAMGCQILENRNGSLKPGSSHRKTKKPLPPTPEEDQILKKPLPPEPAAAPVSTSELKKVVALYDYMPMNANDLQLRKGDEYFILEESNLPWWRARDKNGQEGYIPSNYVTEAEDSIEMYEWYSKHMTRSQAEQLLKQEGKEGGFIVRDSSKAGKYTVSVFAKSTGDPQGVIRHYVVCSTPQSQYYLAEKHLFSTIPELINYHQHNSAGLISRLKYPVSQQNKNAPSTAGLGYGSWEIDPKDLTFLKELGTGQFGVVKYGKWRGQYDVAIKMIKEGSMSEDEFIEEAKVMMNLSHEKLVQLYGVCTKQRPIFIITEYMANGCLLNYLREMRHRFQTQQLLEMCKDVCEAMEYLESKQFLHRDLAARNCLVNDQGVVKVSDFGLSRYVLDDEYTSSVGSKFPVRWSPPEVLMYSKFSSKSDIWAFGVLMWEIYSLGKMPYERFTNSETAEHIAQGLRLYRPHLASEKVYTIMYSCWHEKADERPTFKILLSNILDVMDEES

Sequence of NDR1 (Q15208 whole entry): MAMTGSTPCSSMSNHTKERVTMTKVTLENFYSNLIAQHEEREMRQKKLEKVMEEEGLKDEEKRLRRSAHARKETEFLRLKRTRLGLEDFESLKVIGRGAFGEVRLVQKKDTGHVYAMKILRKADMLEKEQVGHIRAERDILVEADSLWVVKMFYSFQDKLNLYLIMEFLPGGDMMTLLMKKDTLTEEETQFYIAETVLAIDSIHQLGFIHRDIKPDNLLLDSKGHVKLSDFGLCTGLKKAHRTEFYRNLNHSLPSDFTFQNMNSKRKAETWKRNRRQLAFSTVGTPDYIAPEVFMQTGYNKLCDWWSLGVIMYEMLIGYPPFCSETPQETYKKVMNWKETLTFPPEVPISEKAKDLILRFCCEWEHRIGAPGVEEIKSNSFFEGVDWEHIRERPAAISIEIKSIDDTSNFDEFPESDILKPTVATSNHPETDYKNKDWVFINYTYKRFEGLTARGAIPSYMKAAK
Sequence of CK2a1 (P68400 whole entry, the tested form may be a part): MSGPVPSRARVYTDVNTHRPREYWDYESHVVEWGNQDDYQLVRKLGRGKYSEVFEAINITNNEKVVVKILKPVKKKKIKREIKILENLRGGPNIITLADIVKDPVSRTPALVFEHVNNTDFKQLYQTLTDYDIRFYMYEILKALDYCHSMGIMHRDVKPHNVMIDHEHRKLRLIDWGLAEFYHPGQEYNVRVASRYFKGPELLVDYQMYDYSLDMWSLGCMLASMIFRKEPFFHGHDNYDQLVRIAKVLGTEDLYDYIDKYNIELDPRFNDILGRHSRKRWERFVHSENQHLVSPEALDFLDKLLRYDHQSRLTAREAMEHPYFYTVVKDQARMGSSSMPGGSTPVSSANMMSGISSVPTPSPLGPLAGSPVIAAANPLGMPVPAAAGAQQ
Sequence of DGKA (P23743 whole entry): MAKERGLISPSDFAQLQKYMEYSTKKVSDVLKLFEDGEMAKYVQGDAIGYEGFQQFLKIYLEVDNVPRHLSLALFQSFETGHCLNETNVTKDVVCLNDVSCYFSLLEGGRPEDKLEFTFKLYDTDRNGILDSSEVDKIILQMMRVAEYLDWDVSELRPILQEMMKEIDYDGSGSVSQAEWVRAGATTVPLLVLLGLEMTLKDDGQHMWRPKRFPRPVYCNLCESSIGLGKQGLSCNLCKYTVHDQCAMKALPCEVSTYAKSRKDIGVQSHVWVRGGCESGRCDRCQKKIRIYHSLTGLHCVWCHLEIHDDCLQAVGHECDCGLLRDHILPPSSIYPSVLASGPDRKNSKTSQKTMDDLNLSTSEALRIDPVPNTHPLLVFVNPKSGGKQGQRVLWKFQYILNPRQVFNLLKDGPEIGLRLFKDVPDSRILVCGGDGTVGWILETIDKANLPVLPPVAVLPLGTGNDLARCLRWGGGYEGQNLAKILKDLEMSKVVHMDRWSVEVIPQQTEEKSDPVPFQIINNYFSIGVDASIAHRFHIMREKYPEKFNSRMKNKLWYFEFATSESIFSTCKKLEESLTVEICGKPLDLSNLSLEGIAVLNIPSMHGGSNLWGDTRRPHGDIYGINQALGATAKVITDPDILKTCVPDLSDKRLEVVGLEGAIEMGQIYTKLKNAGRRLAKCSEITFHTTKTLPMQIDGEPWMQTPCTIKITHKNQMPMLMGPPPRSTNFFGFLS
Sequence of MELK (Q14680 whole entry): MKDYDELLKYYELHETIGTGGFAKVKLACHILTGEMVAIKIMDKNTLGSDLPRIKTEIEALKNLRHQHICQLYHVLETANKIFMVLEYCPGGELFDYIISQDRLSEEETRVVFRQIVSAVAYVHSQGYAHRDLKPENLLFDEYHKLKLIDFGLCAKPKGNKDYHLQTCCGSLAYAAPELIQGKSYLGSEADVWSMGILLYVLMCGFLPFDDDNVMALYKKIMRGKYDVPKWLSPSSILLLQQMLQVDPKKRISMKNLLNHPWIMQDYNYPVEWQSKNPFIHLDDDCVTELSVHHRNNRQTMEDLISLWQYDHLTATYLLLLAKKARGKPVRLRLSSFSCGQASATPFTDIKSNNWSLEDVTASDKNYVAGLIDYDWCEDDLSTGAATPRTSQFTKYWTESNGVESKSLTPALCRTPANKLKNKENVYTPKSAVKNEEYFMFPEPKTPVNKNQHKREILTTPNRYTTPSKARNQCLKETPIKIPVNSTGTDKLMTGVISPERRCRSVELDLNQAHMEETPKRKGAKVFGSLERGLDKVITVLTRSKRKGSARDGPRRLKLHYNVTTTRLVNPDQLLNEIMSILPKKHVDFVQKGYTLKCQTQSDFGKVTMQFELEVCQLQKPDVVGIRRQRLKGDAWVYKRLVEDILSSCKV
Sequence of ULK3 (Q6PHR2 whole entry): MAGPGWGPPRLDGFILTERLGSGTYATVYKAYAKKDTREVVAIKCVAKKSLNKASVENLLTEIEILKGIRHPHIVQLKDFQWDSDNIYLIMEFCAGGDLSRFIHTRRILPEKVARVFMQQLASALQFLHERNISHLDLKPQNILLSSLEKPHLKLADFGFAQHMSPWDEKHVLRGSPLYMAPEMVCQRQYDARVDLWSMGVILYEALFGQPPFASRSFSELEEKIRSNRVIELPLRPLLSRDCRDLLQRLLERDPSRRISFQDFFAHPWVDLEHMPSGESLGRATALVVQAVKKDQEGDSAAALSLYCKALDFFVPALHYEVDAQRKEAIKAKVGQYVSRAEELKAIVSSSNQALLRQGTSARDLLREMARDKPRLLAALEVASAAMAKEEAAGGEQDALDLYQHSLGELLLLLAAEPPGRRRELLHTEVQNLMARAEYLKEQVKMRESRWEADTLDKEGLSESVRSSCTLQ
Sequence of AGK (Q53H12 whole entry, the tested form may be a part): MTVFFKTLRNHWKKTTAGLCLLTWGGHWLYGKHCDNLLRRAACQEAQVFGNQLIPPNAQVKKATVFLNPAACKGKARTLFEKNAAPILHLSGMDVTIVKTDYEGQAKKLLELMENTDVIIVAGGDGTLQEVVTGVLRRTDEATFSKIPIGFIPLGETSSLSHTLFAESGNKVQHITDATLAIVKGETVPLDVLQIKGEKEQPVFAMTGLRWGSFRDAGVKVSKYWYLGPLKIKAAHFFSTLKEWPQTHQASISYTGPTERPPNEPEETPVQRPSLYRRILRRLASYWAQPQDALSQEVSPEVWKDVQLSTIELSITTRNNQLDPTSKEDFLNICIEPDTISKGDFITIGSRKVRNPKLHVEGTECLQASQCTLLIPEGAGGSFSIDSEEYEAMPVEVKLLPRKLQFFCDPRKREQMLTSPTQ
Sequence of LOK (O94804 whole entry): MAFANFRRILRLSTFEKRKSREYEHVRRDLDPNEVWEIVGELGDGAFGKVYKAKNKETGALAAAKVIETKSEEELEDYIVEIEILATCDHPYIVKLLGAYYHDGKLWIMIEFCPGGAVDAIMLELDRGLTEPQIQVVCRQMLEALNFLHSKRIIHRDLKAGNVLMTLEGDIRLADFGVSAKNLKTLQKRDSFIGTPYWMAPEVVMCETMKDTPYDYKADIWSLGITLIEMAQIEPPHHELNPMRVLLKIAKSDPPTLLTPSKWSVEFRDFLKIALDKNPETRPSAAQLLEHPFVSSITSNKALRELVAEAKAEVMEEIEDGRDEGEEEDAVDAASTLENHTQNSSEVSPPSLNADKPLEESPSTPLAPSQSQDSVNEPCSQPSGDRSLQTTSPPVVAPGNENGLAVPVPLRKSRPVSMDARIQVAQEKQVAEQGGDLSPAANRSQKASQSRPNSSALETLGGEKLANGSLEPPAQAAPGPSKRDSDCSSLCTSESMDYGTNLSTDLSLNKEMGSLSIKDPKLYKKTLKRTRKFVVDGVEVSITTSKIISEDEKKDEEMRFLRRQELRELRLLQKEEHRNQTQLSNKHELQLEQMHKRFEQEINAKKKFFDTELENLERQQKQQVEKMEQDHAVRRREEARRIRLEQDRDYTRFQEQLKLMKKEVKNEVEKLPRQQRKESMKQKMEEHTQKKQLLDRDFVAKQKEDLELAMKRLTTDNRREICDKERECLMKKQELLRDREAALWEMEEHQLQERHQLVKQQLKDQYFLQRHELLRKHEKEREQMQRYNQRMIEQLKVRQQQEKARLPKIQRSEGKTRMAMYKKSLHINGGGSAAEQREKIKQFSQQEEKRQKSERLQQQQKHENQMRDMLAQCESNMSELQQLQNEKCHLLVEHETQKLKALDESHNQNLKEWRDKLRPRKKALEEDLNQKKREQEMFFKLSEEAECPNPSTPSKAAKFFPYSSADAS

Regarding `CN1CCN(Cc2ccc(Nc3ncc(Cl)c(Nc4ccccc4S(=O)(=O)N(C)C)n3)cc2)CC1` [TP-0903], the Kd in data set [1] is under 5 nM; in data set [14] it was 13 nM. Also, in [2], the “Concentrations not cytotoxic to HS5 human MSCs” value is given as under 250 nM. Besides, the inhibition at 0.1 µM in [3] is -26.9%; in data set [4], -50.8%; in data set [5], -41.6%; in data set [7] (labeling site Lys1, peptide ALYATKTLR), 11.6%; in data set [7] (labeling site Lys2, peptide DIKPDNILIDR) it was 7.9%; in data set [9] it was -1.8%. Further, the inhibition at 0.1 µM is 13.5% in [10]; 12.3% in data set [11] (labeling site Lys1, peptide DTGHVYAMKILR); -7.7% in data set [11] (labeling site Lys2, peptide DIKPDNLLLDSK). For the same compound, the Inhibition is 16.0% in data set [6], 86.9% in [8], 40.5% in data set [12] and -19.4% in data set [13].

The Kd is the concentration at which binding is half-saturated. A higher Kd goes with a looser complex. As usually defined, the inhibition is the change of the read-out against control, counted positive when it falls. The Inhibition is the change of the read-out against control, counted positive when it falls.
